Data from patent US20230085307A1, “PYRIDAZINONE COMPOUND AND HERBICIDE” (NISSAN CHEMICAL CORPORATION, priority 2019, published 2023).

Key:
late watergrass = test: Test Example 2: herbicidal activity, application during weed generation under submerged conditions (Table 17, symbol A); assay type: in vivo, late watergrass (Echinochloa oryzicola); settings: AAH 320 g/ha; application during weed generation, submerged conditions
Method in brief: (§1)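 Effect on each weed is rated three weeks post-treatment, using the same scoring criteria as the preceding test. Plants grow from mixed-sown seed in flooded alluvial soil (4 cm water) at 25° C. to 30° C., and are treated at one to two leaves with diluted emulsion dropped onto the water.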

Japanese bulrush = test: Test Example 2: herbicidal activity, application during weed generation under submerged conditions (Table 17, symbol B); assay type: in vivo, Japanese bulrush (Schoenoplectus juncoides); settings: AAH 320 g/ha; application during weed generation, submerged conditions
Method in brief: as §1

oval-leafed pondweed = test: Test Example 2: herbicidal activity, application during weed generation under submerged conditions (Table 17, symbol C); assay type: in vivo, oval-leafed pondweed (Monochoria vaginalis); settings: AAH 320 g/ha; application during weed generation, submerged conditions
Method in brief: as §1

southern crabgrass = test: Test Example 4: herbicidal effect by soil treatment (Table 19, symbol F); assay type: in vivo, southern crabgrass (Digitaria ciliaris); settings: for F: southern crabgrass, herbicidal effect rating: AAH 320 g/ha
Method in brief: (§2)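 In this soil treatment, the formulated compound reached the seeds only through the soil: seeds were buried about 1.5 cm deep in sterilized diluvial soil, then the diluted emulsion was sprayed over the surface. After three weeks at 25° C. to 30° C. in a greenhouse, effects were graded on criteria from an earlier test.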

green foxtail [1] = test: Test Example 4: herbicidal effect by soil treatment (Table 19, symbol G); assay type: in vivo, green foxtail (Setaria viridis); settings: for G: green foxtail, herbicidal effect rating: AAH 320 g/ha
Method in brief: as §2

barnyard grass = test: Test Example 4: herbicidal effect by soil treatment (Table 19, symbol H); assay type: in vivo, barnyard grass (Echinochloa crus-galli); settings: for H: barnyard grass, herbicidal effect rating: AAH 320 g/ha
Method in brief: as §2

wild oat = test: Test Example 4: herbicidal effect by soil treatment (Table 19, symbol I); assay type: in vivo, wild oat (Avena fatua); settings: for I: wild oat, herbicidal effect rating: AAH 320 g/ha
Method in brief: as §2

blackgrass = test: Test Example 4: herbicidal effect by soil treatment (Table 19, symbol J); assay type: in vivo, blackgrass (Alopecurus myosuroides); settings: for J: blackgrass, herbicidal effect rating: AAH 320 g/ha
Method in brief: as §2

velvetleaf = test: Test Example 4: herbicidal effect by soil treatment (Table 19, symbol M); assay type: in vivo, velvetleaf (Abutilon theophrasti); settings: for M: velvetleaf, herbicidal effect rating: AAH 320 g/ha
Method in brief: as §2

redroot pigweed = test: Test Example 4: herbicidal effect by soil treatment (Table 19, symbol N); assay type: in vivo, redroot pigweed (Amaranthus retroflexus); settings: for N: redroot pigweed, herbicidal effect rating: AAH 320 g/ha
Method in brief: as §2

green foxtail [2] = test: Test Example 5: herbicidal effect by foliage application, plastic box (Table 20, symbol G); assay type: in vivo, green foxtail (Setaria viridis); settings: foliage application; for effect on green foxtail (G): 320 g/ha, 3 weeks after application
Method in brief: (§3)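 Plants were sown into sterilized diluvial soil under about 1.5 cm cover and kept in a greenhouse at 25° C. to 30° C. Fourteen days on, foliage received an even spray of the diluted emulsion. Herbicidal or crop effect was judged three weeks afterwards.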

Italian ryegrass = test: Test Example 5: herbicidal effect by foliage application, plastic box (Table 20, symbol K); assay type: in vivo, Italian ryegrass (Lolium multiflorum); settings: foliage application; for effect on Italian ryegrass (K): 320 g/ha, 3 weeks after application
Method in brief: as §3

lambsquarters = test: Test Example 5: herbicidal effect by foliage application, plastic box (Table 20, symbol O); assay type: in vivo, lambsquarters (Chenopodium album); settings: foliage application; for effect on lambsquarters (O): 320 g/ha, 3 weeks after application
Method in brief: as §3

persian speedwell = test: Test Example 5: herbicidal effect by foliage application, plastic box (Table 20, symbol R); assay type: in vivo, Persian speedwell (Veronica persica); settings: foliage application; for effect on persian speedwell (R): 320 g/ha, 3 weeks after application
Method in brief: as §3

[3] = amount of applied herbicide 320 g/ha
[4] = AAH 320 g/ha, three weeks after application
[5] = AAH 320 g/ha, evaluated three weeks after application

## C=CCC(C)Oc1ccc(-c2sc3ccccc3c2-c2c(O)c(C)nn(C)c2=O)cc1 (racemic) [1-213]
Late watergrass
  herbicidal effect rating, A: late watergrass: 3 (Herbicidal rate of 40% or more and less than 70%)
Japanese bulrush
  herbicidal effect rating, B: Japanese bulrush: 3 (Herbicidal rate of 40% or more and less than 70%)
oval-leafed pondweed
  herbicidal effect rating, C: oval-leafed pondweed: 4 (Herbicidal rate of 70% or more and less than 90%)
Southern crabgrass
  F: southern crabgrass, herbicidal effect rating: 0 (Herbicidal rate of 5% or less (almost no effect))
Green foxtail [1]
  G: green foxtail, herbicidal effect rating: 0 (Herbicidal rate of 5% or less (almost no effect))
Barnyard grass
  H: barnyard grass, herbicidal effect rating: 0 (Herbicidal rate of 5% or less (almost no effect))
Wild oat
  I: wild oat, herbicidal effect rating: 0 (Herbicidal rate of 5% or less (almost no effect))
blackgrass
  J: blackgrass, herbicidal effect rating: 1 (Herbicidal rate of 5% or more and less than 20%)
velvetleaf
  M: velvetleaf, herbicidal effect rating: 0 (Herbicidal rate of 5% or less (almost no effect))
Redroot pigweed
  N: redroot pigweed, herbicidal effect rating: 0 (Herbicidal rate of 5% or less (almost no effect))
Green foxtail [2]
  effect on green foxtail (G): 5 (Herbicidal rate of 90% or more (almost completely withered))
Italian ryegrass
  effect on Italian ryegrass (K): 4 (Herbicidal rate of 70% or more and less than 90%)
lambsquarters
  effect on lambsquarters (O): 5 (Herbicidal rate of 90% or more (almost completely withered))
Persian speedwell
  effect on persian speedwell (R): 5 (Herbicidal rate of 90% or more (almost completely withered))

## COCC(C)Oc1ccc(-c2sc3ccccc3c2-c2c(O)c(C)nn(C)c2=O)cc1 (racemic) [1-228]
Late watergrass
  herbicidal effect rating, A: late watergrass: 5 (Herbicidal rate of 90% or more (almost completely withered))
Japanese bulrush
  herbicidal effect rating, B: Japanese bulrush: 3 (Herbicidal rate of 40% or more and less than 70%)
oval-leafed pondweed
  herbicidal effect rating, C: oval-leafed pondweed: 3 (Herbicidal rate of 40% or more and less than 70%)
Southern crabgrass
  F: southern crabgrass, herbicidal effect rating: 4 (Herbicidal rate of 70% or more and less than 90%)
Green foxtail [1]
  G: green foxtail, herbicidal effect rating: 5 (Herbicidal rate of 90% or more (almost completely withered))
Barnyard grass
  H: barnyard grass, herbicidal effect rating: 4 (Herbicidal rate of 70% or more and less than 90%)
Wild oat
  I: wild oat, herbicidal effect rating: 0 (Herbicidal rate of 5% or less (almost no effect))
blackgrass
  J: blackgrass, herbicidal effect rating: 4 (Herbicidal rate of 70% or more and less than 90%)
velvetleaf
  M: velvetleaf, herbicidal effect rating: 4 (Herbicidal rate of 70% or more and less than 90%)
Redroot pigweed
  N: redroot pigweed, herbicidal effect rating: 5 (Herbicidal rate of 90% or more (almost completely withered))
Green foxtail [2]
  effect on green foxtail (G): 5 (Herbicidal rate of 90% or more (almost completely withered))
Italian ryegrass
  effect on Italian ryegrass (K): 4 (Herbicidal rate of 70% or more and less than 90%)
lambsquarters
  effect on lambsquarters (O): 5 (Herbicidal rate of 90% or more (almost completely withered))
Persian speedwell
  effect on persian speedwell (R): 5 (Herbicidal rate of 90% or more (almost completely withered))

## CCC(COc1ccc(-c2sc3ccccc3c2-c2c(O)c(C)nn(C)c2=O)cc1)OC (racemic) [1-230]
Late watergrass
  herbicidal effect rating, A: late watergrass: 4 (Herbicidal rate of 70% or more and less than 90%)
Japanese bulrush
  herbicidal effect rating, B: Japanese bulrush: 3 (Herbicidal rate of 40% or more and less than 70%)
oval-leafed pondweed
  herbicidal effect rating, C: oval-leafed pondweed: 4 (Herbicidal rate of 70% or more and less than 90%)
Southern crabgrass
  F: southern crabgrass, herbicidal effect rating: 0 (Herbicidal rate of 5% or less (almost no effect))
Green foxtail [1]
  G: green foxtail, herbicidal effect rating: 4 (Herbicidal rate of 70% or more and less than 90%)
Barnyard grass
  H: barnyard grass, herbicidal effect rating: 3 (Herbicidal rate of 40% or more and less than 70%)
Wild oat
  I: wild oat, herbicidal effect rating: 0 (Herbicidal rate of 5% or less (almost no effect))
blackgrass
  J: blackgrass, herbicidal effect rating: 4 (Herbicidal rate of 70% or more and less than 90%)
velvetleaf
  M: velvetleaf, herbicidal effect rating: 4 (Herbicidal rate of 70% or more and less than 90%)
Redroot pigweed
  N: redroot pigweed, herbicidal effect rating: 5 (Herbicidal rate of 90% or more (almost completely withered))
Green foxtail [2]
  effect on green foxtail (G): 5 (Herbicidal rate of 90% or more (almost completely withered))
Italian ryegrass
  effect on Italian ryegrass (K): 4 (Herbicidal rate of 70% or more and less than 90%)
lambsquarters
  effect on lambsquarters (O): 5 (Herbicidal rate of 90% or more (almost completely withered))
Persian speedwell
  effect on persian speedwell (R): 5 (Herbicidal rate of 90% or more (almost completely withered))

## Cc1nn(C)c(=O)c(-c2c(-c3cnc4ccccc4c3)sc3ccccc23)c1O [1-108]
Late watergrass
  herbicidal effect rating, A: late watergrass: 0 (Herbicidal rate of 5% or less (almost no effect))
Japanese bulrush
  herbicidal effect rating, B: Japanese bulrush: 2 (Herbicidal rate of 20% or more and less than 40%)
oval-leafed pondweed
  herbicidal effect rating, C: oval-leafed pondweed: 0 (Herbicidal rate of 5% or less (almost no effect))
Southern crabgrass; [3]
  herbicidal effect rating, F: southern crabgrass: 0 (Herbicidal rate of 5% or less (almost no effect))
Green foxtail [1]; [3]
  herbicidal effect rating, G: green foxtail: 0 (Herbicidal rate of 5% or less (almost no effect))
Barnyard grass; [3]
  herbicidal effect rating, H: barnyard grass: 0 (Herbicidal rate of 5% or less (almost no effect))
Wild oat; [3]
  herbicidal effect rating, I: wild oat: 0 (Herbicidal rate of 5% or less (almost no effect))
blackgrass; [3]
  herbicidal effect rating, J: blackgrass: 0 (Herbicidal rate of 5% or less (almost no effect))
Redroot pigweed; [3]
  herbicidal effect rating, N: redroot pigweed: 0 (Herbicidal rate of 5% or less (almost no effect))
Green foxtail [2]; [4]
  G: green foxtail, herbicidal effect: 0 (Herbicidal rate of 5% or less (almost no effect))
Italian ryegrass; [4]
  K: Italian ryegrass, herbicidal effect: 0 (Herbicidal rate of 5% or less (almost no effect))
lambsquarters; [4]
  O: lambsquarters, herbicidal effect: 2 (Herbicidal rate of 20% or more and less than 40%)
Persian speedwell; [4]
  R: persian speedwell, herbicidal effect: 0 (Herbicidal rate of 5% or less (almost no effect))

## Cc1nn(C)c(=O)c(-c2c(-c3ccc(OC(F)F)cc3)sc3ccc(F)cc23)c1OC(=O)c1ccco1 [2-287]
Late watergrass
  herbicidal effect rating, A: late watergrass: 3 (Herbicidal rate of 40% or more and less than 70%)
Japanese bulrush
  herbicidal effect rating, B: Japanese bulrush: 3 (Herbicidal rate of 40% or more and less than 70%)
oval-leafed pondweed
  herbicidal effect rating, C: oval-leafed pondweed: 4 (Herbicidal rate of 70% or more and less than 90%)
Southern crabgrass; [3]
  herbicidal effect on F: southern crabgrass: 4 (Herbicidal rate of 70% or more and less than 90%)
Green foxtail [1]; [3]
  herbicidal effect on G: green foxtail: 5 (Herbicidal rate of 90% or more (almost completely withered))
Barnyard grass; [3]
  herbicidal effect on H: barnyard grass: 5 (Herbicidal rate of 90% or more (almost completely withered))
Wild oat; [3]
  herbicidal effect on I: wild oat: 0 (Herbicidal rate of 5% or less (almost no effect))
velvetleaf; [3]
  herbicidal effect on M: velvetleaf: 5 (Herbicidal rate of 90% or more (almost completely withered))
Redroot pigweed; [3]
  herbicidal effect on N: redroot pigweed: 5 (Herbicidal rate of 90% or more (almost completely withered))
Green foxtail [2]; [5]
  G: green foxtail, herbicidal effect (criteria 0-5): 5 (Herbicidal rate of 90% or more (almost completely withered))
Italian ryegrass; [5]
  K: Italian ryegrass, herbicidal effect (criteria 0-5): 5 (Herbicidal rate of 90% or more (almost completely withered))
lambsquarters; [5]
  O: lambsquarters, herbicidal effect (criteria 0-5): 5 (Herbicidal rate of 90% or more (almost completely withered))
Persian speedwell; [5]
  R: persian speedwell, herbicidal effect (criteria 0-5): 5 (Herbicidal rate of 90% or more (almost completely withered))
